Laboratory results: PubChem BioAssay (NCI)
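Five compound concentrations were applied to cells in 96-well plates for 48 hours; endpoints were derived by simple linear interpolation of the resulting dose-response curve. Abbreviation: GI50, concentration required for 50% inhibition of growth. At the TGI there is no net growth.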

How the values were obtained:
Assay in all cases: NCI tumour cell line growth inhibition, 48 h
HOP-92 NSCLC = test system: HOP-92 NSCLC
U251 CNS = test system: U251 CNS
SN12C renal = test system: SN12C renal
A498 renal = test system: A498 renal
BT-549 breast = test system: BT-549 breast
OVCAR-8 ovarian = test system: OVCAR-8 ovarian
HCC-2998 colon = test system: HCC-2998 colon

Row | Structure (SMILES) | TGI (HOP-92 NSCLC) [µM] | GI50 (U251 CNS) [µM] | TGI (U251 CNS) [µM] | TGI (SN12C renal) [µM] | TGI (A498 renal) [µM] | TGI (BT-549 breast) [µM] | TGI (OVCAR-8 ovarian) [µM] | TGI (HCC-2998 colon) [µM] | GI50 (HOP-92 NSCLC) [µM] | GI50 (SN12C renal) [µM] | GI50 (A498 renal) [µM] | GI50 (OVCAR-8 ovarian) [µM]
1 | Cc1ccc2c(=O)cc(-c3sc4ccccc4c3C)[nH]c2n1 | 30.6 | 38.7 | > 100 | > 100 | > 100 | 44.7 | 56.3 |  |  |  |  | 
2 | N#Cc1nc(COCCOCc2ccc(F)cc2)oc1N |  |  | > 100 | > 100 | > 100 | > 100 | > 100 | > 100 |  |  |  | 
3 | FC1=C2CCCCCC2SC1(F)F (centres undefined) | 70.2 |  |  |  |  | > 100 | > 100 | > 100 |  |  |  | 
4 | CC1=C(C(=O)OC(C)C)C(c2ccccc2C(F)(F)F)C(C(=O)OC(CO[N+](=O)[O-])CO[N+](=O)[O-])=C(C)N1 (centres undefined) |  |  | 29 | 32 |  | 22.1 |  | > 100 |  |  |  | 
5 | Cc1c(C)c(S(=O)(=O)N(CCCCCON)OCCCN)c(C)c2c1OC(C)(C)CC2 | 23 |  | 25.7 | 32.4 | 28.3 | 29.3 | 23.9 |  |  |  |  | 
6 | Nc1nc(N)c2nc(CNc3ccc(C(=O)NC(CCCCNC(=O)c4ccccc4C(=O)O)C(=O)O)cc3)cnc2n1 (centres undefined) | > 100 | 0.0385 | > 100 | > 100 | > 100 | > 100 | > 100 | > 100 | > 100 | 0.0127 | 0.0821 | 0.0059
7 | O=C(/C=C(\O)c1ccccc1)c1cc(-c2ccccc2)n(-c2ccccc2)n1 |  |  | 62.6 | 39.9 | > 100 | 26.1 | 15.3 | > 100 |  |  |  | 
8 | N#CCCN(CCN(CCC#N)C(=O)Nc1ccccc1)C(=O)Nc1ccccc1 | > 100 |  | > 100 | > 100 | > 100 | > 100 | > 100 | > 100 |  |  |  | 
9 | CC1(C)O[C@@H](CBr)C[C@H](C[C@H]2C[C@@H](O)C[C@@H](CCOCc3ccccc3)O2)O1 | 77.5 |  | > 100 | 79.4 | 48.6 |  | 47.7 | 53.7 |  |  |  | 
10 | C=CCn1c(-c2ccc(-c3cs/c(=N\N=O)n3CC=C)cc2)cs/c1=N\N=O | > 100 |  | > 100 | > 100 | > 100 | > 100 | > 100 | > 100 |  |  |  | 
11 | CC#CC(O)(C(=O)OC1CC2CCC(C1)N2C)C1CCCC1 (centres undefined) | > 100 |  | > 100 | > 100 | > 100 | > 100 | > 100 | > 100 |  |  |  | 
12 | C[C@]12CC[C@H](O)CC1=CC[C@@H]1C2CC[C@]2(C)Nc3c(cnn3-c3ccc(F)cc3)CC12 (some centres undefined) | 63.6 |  | > 100 | > 100 | > 47.6 | 38.9 | > 100 | > 100 |  |  |  | 
13 | OC(C/C=N/Nc1ccccc1)(C(F)(F)Cl)C(F)(F)Cl | > 10 |  | > 10 | > 10 | > 10 |  | > 10 | > 10 |  |  |  | 
14 | Cc1nc2c(=O)n3c4c(cccc4c2o1)CCC3 | > 100 |  | > 100 | > 100 | > 100 | > 100 | > 100 | > 100 |  |  |  | 
15 | CC1(C)[C@H]2Cc3cc(-c4cc5c(cn4)[C@@H]4C[C@H]([C@@H]5[C@@H]5c6cc(-c7cc8c(cn7)[C@@H]7C[C@H](C8)C7(C)C)ncc6[C@@H]6C[C@H]5C6(C)C)C4(C)C)ncc3[C@@H]1C2 | > 100 |  | > 100 | > 100 | > 100 | > 100 | > 100 | > 100 |  |  |  | 
16 | CN(C)Cc1cc(C(C)(C)C)cc(C2CCCCC2)c1O |  |  | 27.4 | 29.9 |  |  | 26.4 |  |  |  |  | 
17 | COc1ccc(N=[N+]([O-])c2ccc(OC)cc2)cc1 | > 100 |  | > 100 |  | > 100 | > 100 | > 100 | > 100 |  |  |  | 
18 | O=C1c2ccccc2C(=O)c2oc(Br)cc21 | 4.23 |  | 2.64 | 2.22 | 3.49 | 3.11 | 2.92 | 3.27 |  |  |  | 
19 | CC[C@@H]1/C=C/C=C/C[C@H](C)[C@@H](O)[C@](C)(O)C(=O)[C@H](C)[C@@H](O)[C@H](C)C(=O)[C@H](C)[C@@H](O)[C@H](C)/C=C/C(=O)O[C@H]2[C@@H](C)[C@@H](CC1)O[C@@]1(CC[C@@H](C)[C@@H](CC(C)O)O1)[C@@H]2C (some centres undefined) | 6.11 |  | 11.1 | 4.95 | 9.12 | 4.94 | 8.85 | 6.68 |  |  |  | 
20 | COc1ccccc1CNC(=O)[C@H](Cc1ccc(O)cn1)NC(C)=O | > 100 |  | > 100 | > 100 | > 100 | > 100 |  | > 100 |  |  |  | 
21 | O=c1ccn(C2OC(CN(O)CCC3C(CO)OC(n4ccc(=O)[nH]c4=O)C3O)C(O)C2O)c(=O)[nH]1 (centres undefined) | > 100 |  | > 100 | > 100 | > 100 | > 100 | > 100 | > 100 |  |  |  | 
22 | c1ccc(CC2(c3cc4ccccc4[nH]3)OCCO2)nc1 | > 100 |  | > 100 | > 100 | > 100 | > 100 | > 100 |  |  |  |  | 
23 | COc1ccc(CCc2nccn2C)cc1OC | > 100 |  |  | > 100 | > 100 | > 100 | > 100 | > 100 |  |  |  | 
24 | CCOC(=O)C(=O)C(CCC(=O)c1ccc2ccccc2c1O)C(=O)OCC (centres undefined) | > 100 |  | > 100 | > 100 | > 100 | > 100 | > 100 | > 100 |  |  |  | 
25 | COP(=O)(OC)/C(=C\c1cn(C(c2ccccc2)(c2ccccc2)c2ccccc2)cn1)NC(C)=O | > 100 |  | > 100 | > 100 | > 100 |  | > 100 | > 100 |  |  |  | 
26 | CCOP(=O)(OCC)/C(C#N)=C/c1ccnc2ccccc12 | 43.7 |  | > 100 | 88.2 | > 100 | 50.9 | 52 | > 100 |  |  |  | 
27 | CN(C)CC1CN=C(NC(=O)Nc2ccccc2)O1 (centres undefined) | > 100 |  | > 100 | > 100 | > 100 | > 100 | > 100 | > 100 |  |  |  | 
